Data taken from patent US20130267484A1, “TREATMENT OF RHEUMATOID ARTHRITIS WITH MASITINIB” (AB SCIENCE, priority 2010, published 2013).

Tested on: DMARD-refractory active RA
Experiment: Phase 2a trial of masitinib in DMARD-refractory active RA: efficacy (ACR, ACRn, CRP, DAS28)
Assay type: in vivo, Human
Parameters: ACRn Mean ± SD / ACRn Median: unit not given here
Text: The main exclusion criteria were patients with: inadequate bone marrow function, defined as an absolute neutrophil count ≦2.5×10^9/litre, and platelets ≦100×10^9/litre; active current infection, history of infection requiring hospitalisation, history of recurrent infections, or treatment with antibiotics within 2 weeks of screening. Treatment wash-out periods observed prior to entry to the study were: a) DMARD use within 4 weeks; b) five half-lives, or wash-out in accordance for a specific drug, whichever is longer; c) any live (attenuated) vaccines taken within 4 weeks; d) use of more than one NSAID or its dosage change within 4 weeks; e) prednisone or equivalent corticosteroid dosage >10 mg/day or any dosage change within 4 weeks; and f) prednisone or equivalent corticosteroid dosage >20 mg administered via intra-articular injection, bolus intramuscular or intravenous treatment within 4 weeks. Other exclusion criteria included any previous use of recombinant interleukin-1 receptor antagonist (IL1-Ra) and patients who were pregnant or nursing.
Efficacy data are presented using descriptive statistics, contrasting initial dosage groups or according to previous DMARD failure. For comparison of groups according to initial dosage on a continuous variable, Student test (with Satterwhaite correction for unequal variance) or Wilcoxon test were used when normality was not rejected or rejected, respectively (normality determined via the Shapiro-Wilk test). For the same comparison on a qualitative variable, Chi-square or Fisher Exact test (if the Chi-square hypotheses were not filled) were used. The rate of patients achieving the various ACR response variables after 12 weeks of treatment (remission rate) are presented in terms of percentage and number of patients. Patients were assigned to either 3 or 6 mg/kg/day treatment groups based upon a randomisation schedule generated for packaging and labelling by the Biostatistics Section of AB Science. Individual treatment doses to be administered were supplied in sealed envelopes to be opened by the investigator at time of inclusion. Patients received the treatment from the investigator on an open basis.
Due to the relatively high patient drop-out rate of this study, analysis was conducted on two different datasets: one with an imputation of missing values according to the last observation carried forward (LOCF) methodology and the other in the absence of data imputation, i.e. the observed cases (OC). Analysis for efficacy was performed on a modified Intention-To-Treat (ITT) population and Per Protocol (PP) population. […] The PP population was defined as a subgroup of the ITT population that in addition had presented no major protocol deviations and had completed at least 28 days of treatment exposure.

[1] = Total population (n = 40), ITT population
[2] = W 24, extension phase, ITT population, n = 4
[3] = W 24, extension phase, ITT population, n = 7
[4] = W 36, extension phase, ITT population, n = 5
[5] = W 36, extension phase, ITT population, n = 9
[6] = W 36, extension phase, ITT population, n = 12
[7] = W 48, extension phase, ITT population, n = 6
[8] = W 48, extension phase, ITT population, n = 8
[9] = W 48, extension phase, ITT population, n = 9
[10] = W 60, extension phase, ITT population, n = 7
[11] = W 60, extension phase, ITT population, n = 8

Q: Which results are given for `Cc1ccc(NC(=O)c2ccc(CN3CCN(C)CC3)cc2)cc1Nc1nc(-c2cccnc2)cs1` [masitinib, 4-(4-methylpiperazin-1-ylmethyl)-N-[4-methyl-3-(4-pyridin-3ylthiazol-2-ylamino)phenyl]benzamide]?
A: Non-responders (failed to reach ACR20) after dose augmentation (3 mg/kg/day group, 12 patients augmented at weeks 4 or 8): 42%; Patients with improved response after dose augmentation (3 mg/kg/day group, 12 patients augmented at weeks 4 or 8, initial 12-week phase): 58%; Dose response analyses: dose level (6 mg/kg/day): most potent; Highest response rate for the ACR50 threshold by dose at first response (5/15, dosage not given): 33.3%; Time to first response ACR20, Mean ± SD [1]: 46.3 ± 22.4 days; Time to first response ACR20, Median [1]: 35.0 days; Time to first response ACR20, Min-Max [1]: 28.0 to 105.0 days; Time to first response ACR50, Mean ± SD [1]: 89.1 ± 58.2 days; Time to first response ACR50, Median [1]: 84.0 days; Time to first response ACR50, Min-Max [1]: 28.0 to 217.0 days; DAS28 <2.6, patients (W 12, ITT population, n = 24): 1 (4.%); DAS28 Mean ± SD (W 12, ITT population, n = 24): 4.6 ± 1.3; DAS28 Median (W 12, ITT population, n = 24): 4.4; DAS28 Min-Max (W 12, ITT population, n = 24): 0.5-7.0; DAS28 ≦3.2, patients (W 12, ITT population, n = 24): 1 (4%); ACR20, patients reaching level (W 12, ITT population, n = 27): 15 (56%); ACR50, patients reaching level (W 12, ITT population, n = 27): 9 (33%); ACR70, patients reaching level (W 12, ITT population, n = 27): 3 (11%); ACR90, patients reaching level (W 12, ITT population, n = 27): 0 (0%); ACRn Mean ± SD (W 12, ITT population, n = 27): 31.6 ± 33.5; ACRn Median (W 12, ITT population, n = 27): 42.9; ACRn Min-Max (W 12, ITT population, n = 27): −40.0-87.5; CRP 0% < Improvement ≦25%, patients (W 12, ITT population, n = 28): 5 (18%); CRP 25% < Improvement ≦50%, patients (W 12, ITT population, n = 28): 3 (11%); CRP Deterioration, patients (W 12, ITT population, n = 28): 3 (11%); CRP Improvement >50%, patients (W 12, ITT population, n = 28): 14 (50%); CRP Stable, patients (W 12, ITT population, n = 28): 3 (11%); DAS28 <2.6, patients [2]: 0 (0%); DAS28 Mean ± SD [2]: 5.2 ± 1.7; DAS28 Median [2]: 4.9; DAS28 Min-Max [2]: 3.6-7.5; DAS28 ≦3.2, patients [2]: 0 (0%); ACR20, patients reaching level [3]: 6 (86%); ACR50, patients reaching level [3]: 2 (27%); ACR70, patients reaching level [3]: 1 (14%); ACR90, patients reaching level [3]: 0 (0%); ACRn Mean ± SD [3]: 36.0 ± 29.0; ACRn Median [3]: 40.7; ACRn Min-Max [3]: −16.7-73.0; CRP 0% < Improvement ≦25%, patients [3]: 1 (14%); CRP 25% < Improvement ≦50%, patients [3]: 0 (0%); CRP Deterioration, patients [3]: 0 (0%); CRP Improvement >50%, patients [3]: 5 (71%); CRP Stable, patients [3]: 1 (14%); DAS28 <2.6, patients [4]: 1 (20%); DAS28 Mean ± SD [4]: 4.4 ± 1.9; DAS28 Median [4]: 4.1; DAS28 Min-Max [4]: 2.3-7.5; DAS28 ≦3.2, patients [4]: 1 (20%); ACR20, patients reaching level [5]: 7 (78%); ACR50, patients reaching level [5]: 4 (44%); ACR70, patients reaching level [5]: 2 (22%); ACR90, patients reaching level [5]: 1 (11%); ACRn Mean ± SD [5]: 45.9 ± 32.3; ACRn Median [5]: 45.5; ACRn Min-Max [5]: −3.8-93.3; CRP 0% < Improvement ≦25%, patients [6]: 1 (8%); CRP 25% < Improvement ≦50%, patients [6]: 1 (8%); CRP Deterioration, patients [6]: 0 (0%); CRP Improvement >50%, patients [6]: 9 (75%); CRP Stable, patients [6]: 1 (8%); DAS28 <2.6, patients [7]: 0 (0%); DAS28 Mean ± SD [7]: 4.7 ± 2.1; DAS28 Median [7]: 4.4; DAS28 Min-Max [7]: 2.7-8.7; DAS28 ≦3.2, patients [7]: 2 (33%); ACR20, patients reaching level [8]: 5 (63%); ACR50, patients reaching level [8]: 3 (38%); ACR70, patients reaching level [8]: 1 (13%); ACR90, patients reaching level [8]: 0 (0%); ACRn Mean ± SD [8]: 30.9 ± 36.7; ACRn Median [8]: 40.0; ACRn Min-Max [8]: −20.0-70.9; CRP 0% < Improvement ≦25%, patients [9]: 1 (11%); CRP 25% < Improvement ≦50%, patients [9]: 0 (0%); CRP Deterioration, patients [9]: 2 (22%); CRP Improvement >50%, patients [9]: 6 (67%); CRP Stable, patients [9]: 0 (0%); CRP 0% < Improvement ≦25%, patients [10]: 1 (14%); CRP 25% < Improvement ≦50%, patients [10]: 3 (43%); CRP Deterioration, patients [10]: 0 (0%); CRP Improvement >50%, patients [10]: 3 (43%); CRP Stable, patients [10]: 0 (0%); DAS28 <2.6, patients [10]: 4 (57%); DAS28 Mean ± SD [10]: 3.3 ± 1.5; DAS28 Median [10]: 2.6; DAS28 Min-Max [10]: 1.7-5.3; DAS28 ≦3.2, patients [10]: 4 (57%); ACR20, patients reaching level [11]: 6 (75%); ACR50, patients reaching level [11]: 6 (75%); ACR70, patients reaching level [11]: 3 (38%); ACR90, patients reaching level [11]: 2 (25%); ACRn Mean ± SD [11]: 58.3 ± 31.4
